Measurements taken from patent US6290974A, “Protein ingredient for carrying lipophilic nutrients” (priority 1998, dated 2001).
Counter-ions that a name gives are not always drawn. Like-named read-outs stand apart in the source and are kept apart here.

Key:
[1] = target: T1, β-lactoglobulin (β-Lg) (Bos taurus, UniProt P02754); experiment: Fluorescence titration of β-Lg with ligands (Equation [1]; Kd and n); type: binding; conditions: for molecules bound per molecule of protein: per molecule of protein / β-Lg monomer; for binding affinity, comparative (in words): compared with other ligands of Table 1 or the retinoids
T1 construct: Isolation of β-Lg from Whey; from tissue; host or cells: whey (milk), purified by bioselective adsorption on N-retinyl-Celite
T1 sequence (P02754 17-178): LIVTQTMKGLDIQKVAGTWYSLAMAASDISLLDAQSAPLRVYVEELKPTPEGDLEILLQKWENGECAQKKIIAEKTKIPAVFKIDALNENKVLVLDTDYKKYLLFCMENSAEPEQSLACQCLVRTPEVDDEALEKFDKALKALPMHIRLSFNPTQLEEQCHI
Description: (§1) Fluorescence spectra were recorded at 23 ° C. with a System 3 Scanning Spectrofluorometer (Optical Technology Devices, Inc., Elmsford, N.Y.) using the ratio mode. Excitation and emission spectra were obtained with 1 μM solutions of β-Lg in 50 mM sodium phosphate, pH 7.0, both in the presence and absence of 2 μM concentrations of the various ligands. Titration of β-Lg with the various ligands was quantified by measuring the fluorescence quenching of the protein tryptophanyl residues (excitation at 287 nm, emission measured at 332 nm). The spectrofluorometer cuvette contained 2.5 ml of 1 μM β-Lg in the phosphate buffer to which 2.5-μl increments of the ligand solution in ethanol or ethyl ether were added with a micropipette. Dufour et al., (1990) FEBS Lett. 277, 223. […] Cogan et al., (1976) Eur. J. Biochem. 65, 71.
(§2) The titration can also be followed by measuring the increase in vitamin D or cholesterol fluorescence that was due to energy transfer from the tryptophanyl residue. Thus, with excitation at 287 nm, emission was measured at 412 nm for vitamin D or 390 nm for cholesterol.
The titration data can be used to evaluate the equilibrium dissociation constant and the number of binding sites per monomer as has been previously described. Cogan et al., (1976) Eur. J. Biochem. 65, 71; Dufour and Haertle, (1991) Biochim. Biophys. Acta 1079, 316; Wang et al., (1997) J. Dairy Sci. 80, 1047. The linear regression equation
(§3) PT a=(1/n)[RT a/(1-a)]-Kd /n
(§4) is used to calculate n, the number of binding sites per molecule of protein and Kd, the apparent dissociation constant. In this equation, PT is total protein concentration, and RT is total ligand concentration.
Cho et al., (1994) J. Biol. Chem. 269, 11102; Dufour and Haertle, (1991) Biochim. Biophys. Acta 1079, 316; Wang et al., (1997) J. Dairy Sci. 80, 1047. […] Cho et al., (1994) J. Biol. Chem. 269, 11102; Dufour and Haertle, (1991) Biochim. Biophys. Acta 1079, 316; Wang et al., (1997) J. Dairy Sci. 80, 1047.
(§5) Possible binding of vitamin D3 to β-Lg was also investigated by recording the fluorescence emission at 412 nm as a function of the excitation wavelength for vitamin solutions with and without added β-Lg (FIG. 4). […] In a titration experiment, the protein fluorescence at 332 nm with excitation at 287 nm was determined as a function of vitamin D3 concentration (FIG. 3). […] Also, the increase of vitamin D3 fluorescence at 412 nm with excitation at 287 nm for varying vitamin concentrations can be plotted according to Equation [1] as shown in FIG. 5B.
Dufour and Haertle, (1991) Biochim. Biophys. Acta 1079, 316; Wang et al., (1997) J. Dairy Sci. 80, 1047.
The potential binding of both cholesterol and 7-dehydrocholesterol to β-Lg was examined by fluorescence spectroscopy, essentially as described above for vitamin D (Example 3).
The titration data were used to calculate the equilibrium dissociation constant (Kd) and the number of binding sites per β-Lg monomer (n), as described in Example 3.

[2] = target: T1, β-lactoglobulin (β-Lg); conditions: cited from earlier work; for binding to β-Lg reported (in words): in vitro
[3] = target: T1, β-lactoglobulin (β-Lg); experiment: Fluorescence emission/excitation spectra of β-Lg with and without ligand; type: binding; conditions: for ligand fluorescence at 412 nm with excitation around 287 nm in presence of β-Lg: 2 μM ligand, 1 μM β-Lg, pH 7.0, 23 °C; for energy transfer between protein tryptophanyl residues and ligand: emission 390 nm
Description: as §1, §2
Binding of hydrophobic ligands in proximity to Trp19 results in energy transfer between this protein residue and the ligand, and thus changes in the fluorescence emission spectra can be used to follow complex formation. Fluorescence emission spectra of β-Lg with and without bound vitamin D2 that result from excitation of tryptophanyl residues at 287 nm are shown in FIG. 1.
as §5
The potential binding of both cholesterol and 7-dehydrocholesterol to β-Lg was examined by fluorescence spectroscopy, essentially as described above for vitamin D (Example 3). […] A plot of the data that were obtained with varying cholesterol concentrations according to Equation [1] from Example 3 was similar to that for vitamin D3, shown in FIG. 5.
Studies were undertaken to evaluate whether other fat-soluble vitamins bind to β-Lg. Fluorescence emission spectra of β-Lg in the presence and absence of vitamin E, vitamin K1, or vitamin K2 were obtained essentially as described in Example 3.

[4] = target: T1, β-lactoglobulin (β-Lg); experiment: Fluorescence titration of β-Lg with linoleic acid, conjugated linoleic acid and its methyl ester (Trp19 enhancement); type: binding; conditions: 10 μM β-Lg
Source text: The titration data can be used to evaluate the equilibrium dissociation constant and the number of binding sites per monomer as has been previously described. […] Biophys. […] The linear regression equation
as §3, §4

[5] = 1 μM β-Lg, 50 mM phosphate pH 7.0, 23 °C, triplicate titrations (vitamin D2: five; ergosterol: single)
[6] = Kd, Table 2, β-Lg titration as in Example 3
[7] = β-Lg titration as in Example 3, read-out: Kd, Table 2
[8] = 1 μM β-Lg, 50 mM phosphate pH 7.0, 23 °C, triplicate titrations (vitamin D2: five; ergosterol: single), read-out: Kd (apparent dissociation constant), Table 1

CCCCCCCCCCCCCCCC(=O)OC/C=C(C)/C=C/C=C(C)/C=C/C1=C(C)CCCC1(C)C [Retinyl palmitate (R), Retinyl palmitate]
n, Table 2 ([1]; β-Lg titration as in Example 3): 0.8 mol/mol β-LG

Cc1c2ccncc2c(C)c2c1[nH]c1ccccc12 [ellipticine]
binding to β-Lg reported (in words) [2]: reported to bind

CC1=CC(=O)c2ccccc2C1=O [Vitamin K3, menadione]
β-Lg fluorescence, 300 to 360 nm [3]: No quenching | binding in the β-Lg calyx ([3]; inferred from absence of quenching): does not bind

C=C1CC[C@H](O)C/C1=C/C=C1\CCC[C@]2(C)[C@@H]([C@H](C)CCCC(C)C)CC[C@@H]12 [Vitamin D3, cholecalciferol]
ligand fluorescence at 412 nm with excitation around 287 nm in presence of β-Lg [3]: increased intensity | Kd [1]: 36 nM | n (number of binding sites per molecule of protein), Table 1 [1, 5]: 2.01 mol/mol of protein | Kd [1, 6]: 36 nM | molecules bound per molecule of protein [1]: 2 molecules | n, Table 2 ([1]; β-Lg titration as in Example 3): 2.0 mol/mol β-LG

CC(C)CCC[C@@H](C)[C@H]1CC[C@H]2C3=CC=C4C[C@@H](O)CC[C@]4(C)[C@H]3CC[C@]12C [7-Dehydrocholesterol, 7-dehydrocholesterol]
energy transfer between protein tryptophanyl residues and ligand [3]: energy was transferred | Kd [1]: 26.7 nM | n (number of binding sites per molecule of protein), Table 1 [1, 5]: 1.65 mol/mol of protein

CCCCC/C=C\C/C=C\CCCCCCCC(=O)O [LA, linoleic acid]
n, Table 3, from Frapin et al. ([2]; From Frapin et al., J. Protein Chem. 12, 443 (1993)): 0.83 mol/mol β-LG | Kd ([2]; From Frapin et al., J. Protein Chem. 12, 443 (1993), read-out: Kd, Table 3, from Frapin et al.): 190 nM | Kd ([4]; 27 °C, read-out: order of Kd (text, Example 7)): ~100 nM | n, Table 3 ([4]; pH 7, 27 °C, enhancement at 332 nm, excitation 287 nm): 1.01 mol/mol β-LG | Kd ([4]; pH 7, 27 °C, enhancement at 332 nm, excitation 287 nm, read-out: Kd, Table 3): 143 nM

CCCCCCCCCCCCCCCC(=O)O [Palmitic acid]
Kd [1, 6]: 490 nM | n, Table 2 ([1]; β-Lg titration as in Example 3): 1.2 mol/mol β-LG

CC1=C(/C=C/C(C)=C/C=C/C(C)=C/C(=O)O)C(C)(C)CCC1 [Retinoic acid, retinoic acid]
Kd [1, 6]: 17 nM | n, Table 2 ([1]; β-Lg titration as in Example 3): 0.9 mol/mol β-LG

CCCCCCCCCCCCCCCC(=O)OC/C=C(C)/C=C/C=C(C)/C=C/C1=C(C)CCCC1(C)C [Retinyl palmitate (P), Retinyl palmitate]
n, Table 2 ([1]; β-Lg titration as in Example 3): 1.2 mol/mol β-LG

C=C1CC[C@H](OS(=O)(=O)O)C/C1=C/C=C1\CCC[C@]2(C)[C@@H]([C@H](C)CCCC(C)C)CC[C@@H]12 [Vitamin D3 sulfate, vitamin D3 sulfate]
Kd [1]: 30.3 nM | mol bound per mol of protein (Example 4) [1]: 2 mol~mol^-1 | n (number of binding sites per molecule of protein), Table 1 [1, 5]: 1.74 mol/mol of protein

CC1=C(C/C=C(\C)CCC[C@H](C)CCC[C@H](C)CCCC(C)C)C(=O)c2ccccc2C1=O [Vitamin K1, 2-methyl-3-phytyl-1,4-napthho-quinone]
β-Lg fluorescence, 280 to 300 nm [3]: increase | β-Lg fluorescence, 300 to 360 nm [3]: quenched | n values, molecules bound per β-Lg monomer (Example 6) [1]: 1.9 | molecules bound per molecule of protein [1]: ~2 molecules | Kd ([1]; read-out: Kd values (Example 6)): 90 nM | Kd ([1]; read-out: order of magnitude of Kd (Example 6)): ~1 nM | n, Table 2 ([1]; β-Lg titration as in Example 3): 1.9 mol/mol β-LG | Kd [1, 7]: 90 nM

C=C1CC[C@H](O)C/C1=C/C=C1\CCC[C@]2(C)[C@@H]([C@H](C)/C=C/[C@H](C)C(C)C)CC[C@@H]12 [Vitamin D2, ergocalciferol]
β-Lg fluorescence, 300 to 360 nm [3]: quenched | ligand fluorescence at 412 nm with excitation around 287 nm in presence of β-Lg [3]: increased | mol bound per mol of protein (Example 4) [1]: 2 mol~mol^-1 | n (number of binding sites per molecule of protein), Table 1 [1, 5]: 2.00 mol/mol of protein | Kd [1, 8]: 4.91 nM | ligand concentration at which fluorescence quenching appeared to reach a maximum ([1]; 1 μM β-Lg, emission 332 nm): ~2 µM | binding affinity, comparative (in words) [1]: significantly greater | affinity of β-Lg relative to that for vitamin A and other retinoids (greater by) ([1]; compared with vitamin A and other retinoids): about 10 fold | n ([1]; quenching at 332 nm, excitation 287 nm, five titrations, 1 μM β-Lg): 2.00±0.16 | Kd ([1]; quenching at 332 nm, excitation 287 nm, five titrations, 1 μM β-Lg, read-out: Kd): 4.91 ± 3.28 nM | n, Table 2 ([1]; β-Lg titration as in Example 3): 2.0 mol/mol β-LG | Kd [1, 7]: 4.9 nM

Cc1c(C)c2c(c(C)c1O)CCC(C)(CCCC(C)CCCC(C)CCCC(C)C)O2 (stereo not drawn) [Vitamin E, α-tocopherol]
β-Lg fluorescence, 280 to 300 nm [3]: increase | β-Lg fluorescence, 300 to 360 nm [3]: no change | n values, molecules bound per β-Lg monomer (Example 6) [1]: 1 | Kd ([1]; Kd values (Example 6)): 91 nM | Kd [1, 6]: 91 nM | Kd ([1]; order of magnitude of Kd (Example 6)): ~1 nM | n, Table 2 ([1]; β-Lg titration as in Example 3): 1.0 mol/mol β-LG

CC(C)CCC[C@@H](C)[C@H]1CC[C@H]2[C@@H]3CC=C4C[C@@H](O)CC[C@]4(C)[C@H]3CC[C@]12C [Cholesterol, cholesterol]
energy transfer between protein tryptophanyl residues and ligand [3]: energy was transferred | Kd [1]: 34.9 nM | n (number of binding sites per molecule of protein), Table 1 [1, 5]: 2.36 mol/mol of protein | Kd [1, 6]: 34.9 nM | n, Table 2 ([1]; β-Lg titration as in Example 3): 2.4 mol/mol β-LG

CC(C)[C@@H](C)/C=C/[C@@H](C)[C@H]1CC[C@H]2C3=CC=C4C[C@@H](O)CC[C@]4(C)[C@H]3CC[C@]12C [Ergosterol, ergosterol]
mol bound per mol of protein (Example 4) [1]: 2 mol~mol^-1 | n (number of binding sites per molecule of protein), Table 1 [1, 5]: 2.02 mol/mol of protein | Kd [1, 8]: 6.25 nM | binding affinity, comparative (in words) [1]: significantly greater

C=CC1=C(C)c2cc3[nH]c(cc4nc(cc5[nH]c(cc1n2)c(C)c5CCC(=O)O)C(CCC(=O)O)=C4C)c(C)c3C=C [protoporphyrin IX]
binding to β-Lg reported (in words) [2]: reported to bind
